Measurements: patent US20250057191A1, “METHODS OF IMPROVING THE NUTRITIONAL STATUS OF IMMUNE STRESSED ANIMALS” (ELANCO US INC., priority 2021, published 2025)
Marks after values point to notes of the source that are not given here.

Columns and labels:
[1] = tested on: nursery pigs; experiment: Example 4: growth performance and livability of nursery pigs from 8 to 45 lb of BW, full vs. partial components, 65 d
Excerpt: To evaluate the effects of dietary supplementation of the full vs. partial components of a beta-glucan/yeast cell wall/direct fed microbials/L-carnitine combination (Combo), a study was designed to feed the dietary treatments as shown Table 14 to nursery pigs from approximately 8 to 45 lb of BW post-weaning. Specifically, a total of 216 mixed-gender pigs were randomly placed in pens with 27 pigs per pen at weaning. Pens were blocked by weaning weight and pens within block were randomly assigned to one of 4 dietary treatments resulting in two pens per treatment. This study was conducted for 65 days in a 4-phase feeding program immediately after weaning.
Concentration of DFM was no less than 7.5×10^8 cfu/g of the product. Dietary concentrations of beta-glucan, yeast cell wall, DFM and carnitine were the same for each of the treatments if included in the diets.

[2] = tested on: serum vitamin A; experiment: Example 4: serum vitamin A in nursery pigs fed full or partial compositions of Combo, weaning to end of nursery; type: in vivo
Protocol: Serum samples were collected from two randomly selected pigs per pen with a total of 4 pigs per treatment at weaning (prior to access of the experimental diets) and at the end of the nursery phase when pigs reached approximately 45 lb of BW. Serum samples were analyzed for vitamin A concentration.

[3] = 8 to 45 lb BW, Combo and Yeast/DFM 1.0 lb/ton, L-Carnitine 50 ppm
[4] = Early nursery, Phase 1 to 2, 22 d post-weaning
[5] = Entire nursery, Phase 1 to 4, 65 d post-weaning
[6] = Late nursery, Phase 3 to 4, 43 d post-weaning
[7] = end of nursery (approx. 45 lb BW)

C[N+](C)(C)C[C@H](O)CC(=O)[O-] [carnitine, L-Carnitine]
greater nursery closeout ADG compared to Control [1, 3]: 29%
greater nursery closeout G/F compared to Control [1, 3]: 29%
BW end of Phase 2 ([1]; Early nursery, 22 d post-weaning): 13.3 ^b lb
ADFI ([1]; Early nursery, Phase 1 to 2, 22 d): 0.68 lb/day
ADG [1, 4]: 0.16 lb/day
G:F [1, 4]: 0.241 ^b
Mortality [1, 4]: 31.48%
ADFI ([1]; Entire nursery, Phase 1 to 4, 65 d): 1.01 ^a lb/day
ADG [1, 5]: 0.31 ª lb/day
ADG, change compared to Control [1, 5]: (+29%)
G/F [1, 5]: 0.282 ^b
G/F, change compared to Control [1, 5]: (+29%)
Mortality [1, 5]: 46.30%
Closeout BW end of Phase 4 ([1]; Late nursery, Phase 3 to 4): 43.2 lb
ADFI ([1]; Late nursery, Phase 3 to 4, 43 d): 1.32 ª lb/day
ADG [1, 6]: 0.78 ^c lb/day
F/G [1, 6]: 1.69
Mortality [1, 6]: 14.81%
percentage increase of serum vitamin A concentration from weaning to the end of nursery ([2]; Combo and Yeast/DFM 1.0 lb/ton, L-Carnitine 50 ppm, FIG. 6): 114%
serum vitamin A concentration, Max. [2, 7]: 0.198 ppm
serum vitamin A concentration, Mean [2, 7]: 0.168 ppm
serum vitamin A concentration, Min. [2, 7]: 0.143 ppm
serum vitamin A concentration at the end of nursery ([2]; ~45 lb BW, Combo and Yeast/DFM 1.0 lb/ton, L-Carnitine 50 ppm, 4 pigs per treatment): 0.503 ppm
